Activity calls are given as the source filed them. The rule behind the calls is not given here.

Data set [1] can be described thus: Lipophilicity, Log P of the compound. The format is physicochemical. Particulars: octanol/water.
For data set [2], the target named is Amyloid-beta precursor protein (Homo sapiens, UniProt P05067). In words: Displacement of [125I]IMPY from beta amyloid in human AD cortical tissue. Background: In a radioligand displacement assay an active substance lowers the binding of a labelled ligand.
Amyloid-beta precursor protein, sequence (P05067 whole entry): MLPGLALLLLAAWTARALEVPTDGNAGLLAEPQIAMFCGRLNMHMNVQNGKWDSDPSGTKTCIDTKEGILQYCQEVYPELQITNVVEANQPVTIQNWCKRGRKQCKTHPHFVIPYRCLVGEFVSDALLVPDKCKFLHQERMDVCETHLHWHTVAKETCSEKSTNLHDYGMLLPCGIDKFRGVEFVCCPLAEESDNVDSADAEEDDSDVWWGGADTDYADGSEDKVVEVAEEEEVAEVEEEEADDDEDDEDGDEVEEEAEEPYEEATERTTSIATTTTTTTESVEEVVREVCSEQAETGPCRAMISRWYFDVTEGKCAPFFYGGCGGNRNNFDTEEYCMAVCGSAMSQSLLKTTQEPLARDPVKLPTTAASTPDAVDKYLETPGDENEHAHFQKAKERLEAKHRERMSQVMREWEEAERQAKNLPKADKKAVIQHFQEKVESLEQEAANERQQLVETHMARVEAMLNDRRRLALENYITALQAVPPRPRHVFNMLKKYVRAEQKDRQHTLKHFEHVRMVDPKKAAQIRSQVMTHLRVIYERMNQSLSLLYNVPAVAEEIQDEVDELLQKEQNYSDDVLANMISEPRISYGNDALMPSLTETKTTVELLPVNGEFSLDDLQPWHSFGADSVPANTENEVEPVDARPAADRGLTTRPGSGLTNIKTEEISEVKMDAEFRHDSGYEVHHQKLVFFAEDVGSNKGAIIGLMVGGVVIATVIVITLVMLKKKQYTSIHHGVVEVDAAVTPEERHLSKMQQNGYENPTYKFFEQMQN
Data set [3] deals with Rhesus monkey. In words: Penetration into iv dosed rhesus monkey blood-brain barrier after 9 mins. It counts as functional, organism-based. The note with it: Macaca mulatta, tested as the 18F-labelled form.
Data set [4] concerns Rhesus monkey. In words: Uptake in iv dosed rhesus monkey skull. The format is functional, organism-based. Particulars: Macaca mulatta; tested as the 18F-labelled form.

Turning to `CN(C)c1ccc(-c2cn3cc(I)ccc3n2)cc1`, in data set [1], the log partition coefficient (logP) – broadly, the decadic logarithm of the partition coefficient of the neutral form, usually between octanol and water – worked out at 3.58.
As for `CN(C)c1ccc(-c2cn3cc(CCCF)ccc3n2)cc1`, in data set [2], the inhibition constant (Ki) (as a rule, the dissociation constant of the complex between target and ligand, obtained from inhibition or displacement) amounted to 48.3 nM. In addition, the logP in data set [1] was 2.84. The result in data set [3] was Active. In addition, the outcome in data set [4] was inactive.
Take `CN(C)c1ccc(-c2cn3cc(CCF)ccc3n2)cc1`: the Ki in data set [2] came out at 177 nM. The molecule further gave a logP in data set [1] of 2.42.

(Values after ChEMBL document CHEMBL1147794, “Synthesis and evaluation of two 18F-labeled imidazo[1,2-a]pyridine analogues as potential agents for imaging beta-amyloid in Alzheimer's disease” (Bioorg Med Chem Lett, 2006).)
